Source: patent publication US20240018157A1, “CYCLIC COMPOUNDS AND METHODS OF USING SAME” (Schrödinger, Inc., priority 2019, published 2024)
Structures can show the parent of a compound that is named as a salt.

Experiments:
[1] = system: IL10 secretion, OCI-LY10 cells; experiment: Human IL10 secretion assay, Assay 2 (Meso Scale Discovery); format: cell-based; settings: 24 h incubation, MSD, read-out: IL-10 Secretion IC50 [nM] Assay 2
Method: (§1) IL10 is one of the cytokines that are regulated via activation of NF-kB signaling. For example, in ABC-DLBCL cell lines, the activated NF-kB signaling leads to increased IL10 secretion. Inhibition of NF-kB signaling has been shown leading to decreased IL10 secretion.
Assay 2: OCI-LY10 cells were seeded in IMEM supplemented with 20% fetal bovine serum at 4.8×10^5 cells per 160 μL per well in 96-well V-bottom cell culture plates (coming, 3894), treated with 120 nL of 3-fold serial compound dilutions, starting at 4 mM. The final vehicle concentration was 0.075% DMSO in all wells. After a 24 h incubation, human IL-10 pre-coated plates (Meso Scale Discovery) were washed 3 times with PBST, and 50 μL culture medium was aspirated into the MSD plate and incubated at 4° C. overnight. The supernatant was then discarded and the wells were washed 3 times with PBST. SULFO-TAG Anti-human IL-10 Antibody (50×) was diluted 50 fold according to the Meso Scale Protocol, then 25 μL of SULFO-TAG Anti-human IL-10 Antibody (1×) was added. After 2 h of incubation at RT, the supernatant was discarded and the well was washed 3 times with PBST. 2× read buffer was added and the signal was read on an MSD Sector S600. The effect of a particular compound on IL10 secretion is shown relative to the effect of DMSO; set as 100%. IC50 values (nM) were determined using 4-parametric curve-fitting.

[2] = system: IL10 secretion, OCI-LY10 cells; experiment: Human IL10 secretion assay, Assay 1 (HTRF); format: cell-based; settings: 24 h incubation, read-out: IL-10 Secretion IC50 [nM] Assay 1
Method: as §1
Assay 1: OCI-LY10 cells were seeded in IMEM supplemented with 20% fetal bovine serum at 3×10^5 cells per well in 96-well round bottom plates (Corning 3799, Corning), treated with 100 nL of 3-fold serial compound dilutions, starting at 10 mM. The final vehicle concentration was 0.1% DMSO in all wells. After 24 h incubation, the cells were transferred to 96-PCR plates (Axygen: PCR-96-FLT-C) and centrifuged, then 16 μL of cell culture media was transferred to HTRF plates and IL10 levels were measured using human IL-10 Assay Kits (Cisbio) using HTRF format. The signals were transformed to percentage of remaining activity by using the high control (HC, median of signal from wells containing cells treated with DMSO) and low control (LC, median of signal from wells with no cells). IC50 values (nM) were determined using 4-parametric curve-fitting and Hill coefficient were obtained using Graph Pad Prism (Graph Pad software, Inc, USA) with non-linear regression analysis.

[3] = target: full-length MALT1 protein His-MALT1(1-824) (Homo sapiens (Human), UniProt Q9UDY8); experiment: MALT1 protease assay, Assay 2 (1 nM MALT1, Ac-LRSR-AMC substrate); format: biochemical; settings: 1 nM MALT1, 50 μM Ac-LRSR-AMC, 2 h pre-incubation, 8 hr incubation at RT
Method: MALT1 protease activity was assessed in an in vitro assay using a tetrapeptide as substrate and full-length MALT1 protein His-MALT1(1-824) purified from baculovirus-infected insect cells.
The final assay buffer includes 1 nM (Assay 2) or 2 nM (Assay 1) of MALT1 full-length protein, 50 μM Ac-LRSR-AMC substrate, 50 mM Tris pH 7.5, 600 mM Sodium Citrate, 1 mM DTT, 1 mM EDTA, and 0.05% BSA in 384-well plate format using black microtiter square well plates (Optiplate 384-F, Perkin Elmer).
Test compounds were dissolved in 100% DMSO at stock of 10 mM, with final DMSO concentration 0.1%. Test compounds were pre-incubated with MALT1 protein for 2 h at room temperature. Substrate was added after the pre-incubation and fluorescence signal was measured using Envision at excitation 355 nm and emission 460 nm after 8 hr incubation at RT.
The fluorescence units were transformed to percentage of remaining activity by using the high control (HC, median of fluorescence signal from wells containing MALT1 protein, substrate, and DMSO) and low control (LC, median of fluorescence signal from wells with substrate only) with the formula below: […]
IC50 and Hill coefficient were obtained using Graph Pad Prism (Graph Pad software, Inc, USA) with non-linear regression analysis.

full-length MALT1 protein His-MALT1(1-824), sequence (Q9UDY8 whole entry): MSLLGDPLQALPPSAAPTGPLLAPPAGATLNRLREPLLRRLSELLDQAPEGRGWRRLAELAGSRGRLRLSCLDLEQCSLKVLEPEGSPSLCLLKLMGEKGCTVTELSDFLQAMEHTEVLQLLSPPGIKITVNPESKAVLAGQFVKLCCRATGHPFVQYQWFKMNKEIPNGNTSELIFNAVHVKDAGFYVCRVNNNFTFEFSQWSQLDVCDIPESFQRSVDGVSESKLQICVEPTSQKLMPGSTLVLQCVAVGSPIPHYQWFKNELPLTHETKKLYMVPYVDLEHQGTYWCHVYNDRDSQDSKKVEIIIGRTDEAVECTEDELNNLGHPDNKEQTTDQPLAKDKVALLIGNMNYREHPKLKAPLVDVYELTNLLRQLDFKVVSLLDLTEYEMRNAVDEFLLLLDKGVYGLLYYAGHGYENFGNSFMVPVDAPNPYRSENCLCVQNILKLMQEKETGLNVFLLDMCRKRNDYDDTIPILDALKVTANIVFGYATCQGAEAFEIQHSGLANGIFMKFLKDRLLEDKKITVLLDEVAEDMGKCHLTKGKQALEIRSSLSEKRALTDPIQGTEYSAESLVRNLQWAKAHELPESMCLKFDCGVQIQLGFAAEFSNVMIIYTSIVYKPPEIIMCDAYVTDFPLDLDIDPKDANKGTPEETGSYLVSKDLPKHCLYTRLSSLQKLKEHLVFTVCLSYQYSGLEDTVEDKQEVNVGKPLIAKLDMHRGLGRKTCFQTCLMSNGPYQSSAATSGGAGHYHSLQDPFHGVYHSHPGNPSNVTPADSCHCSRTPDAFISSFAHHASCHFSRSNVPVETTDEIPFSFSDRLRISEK

| SMILES | IC50 [1] | IC50 [2] | IC50 [3] |
| --- | --- | --- | --- |
| C[C@@]1(C(F)(F)F)CN(C(=O)Nc2cnc(-n3nccn3)c(C(F)(F)F)c2)c2cnc3cc(F)nn3c21 [compound 181, (R)-N-(6-(2H-1,2,3-triazol-2-yl)-5-(trifluoromethyl)pyridin-3-yl)-2-fluoro-8-methyl-8-(trifluoromethyl)-7,8-dihydro-6H-pyrazolo[1,5-a]pyrrolo[2,3-e]pyrimidine-6-carboxamide] | 10 to 100 nM | 10 to 100 nM |  |
| CC(O)c1cnn(-c2ncc(NC(=O)N3C[C@@](C)(C(F)(F)F)c4c3cnc3cc(F)nn43)cc2C(F)F)n1 (stereo partly drawn) [compound 191, (8R)-N-(5-(difluoromethyl)-6-(4-(1-hydroxyethyl)-2H-1,2,3-triazol-2-yl)pyridin-3-yl)-2-fluoro-8-methyl-8-(trifluoromethyl)-7,8-dihydro-6H-pyrazolo[1,5-a]pyrrolo[2,3-e]pyrimidine-6-carboxamide] | 10 to 100 nM | 10 to 100 nM |  |
| O=C(Nc1cnc(-n2nccn2)c(Cl)c1)N1CC(O)(C(F)(F)F)c2c1cnc1cc(Cl)nn21 (stereo not shown) [compound 201, 2-chloro-N-(5-chloro-6-(2H-1,2,3-triazol-2-yl)pyridin-3-yl)-8-hydroxy-8-(trifluoromethyl)-7,8-dihydro-6H-pyrazolo[1,5-a]pyrrolo[2,3-e]pyrimidine-6-carboxamide] | 10 to 100 nM | 10 to 100 nM |  |
| COc1c(C)cc(NC(=O)N2C[C@@](C)(C(F)(F)F)c3c2cnc2cc(Cl)nn32)nc1O[C@H]1CCNC1 [compound 82, (R)-2-chloro-N-(5-methoxy-4-methyl-6-(((S)-pyrrolidin-3-yl)oxy)pyridin-2-yl)-8-methyl-8-(trifluoromethyl)-7,8-dihydro-6H-pyrazolo[1,5-a]pyrrolo[2,3-e]pyrimidine-6-carboxamide formate] |  | 100 to 1000 nM | 10 to 100 nM |
| C[C@H]1COC(=O)N1c1cc(NC(=O)N2C[C@@](C)(C(F)(F)F)c3c2cnc2cc(Cl)nn32)cc(C(F)(F)F)n1 [compound 84, (R)-2-chloro-8-methyl-N-(2-((S)-4-methyl-2-oxooxazolidin-3-yl)-6-(trifluoromethyl)pyridine-4-yl)-8-(trifluoromethyl)-7,8-dihydro-6H-pyrazolo[1,5-a]pyrrolo[2,3-e]pyrimidine-6-carboxamide] |  | 100 to 1000 nM | 10 to 100 nM |
| C[C@@]1(C(F)(F)F)CN(C(=O)Nc2cnc(-n3nccn3)c(C#N)c2)c2cnc3cc(F)nn3c21 [compound 91, (R)-N-(5-cyano-6-(2H-1,2,3-triazol-2-yl)pyridin-3-yl)-2-fluoro-8-methyl-8-(trifluoromethyl)-7,8-dihydro-6H-pyrazolo[1,5-a]pyrrolo[2,3-e]pyrimidine-6-carboxamide] | 10 to 100 nM |  |  |
| CNc1cc(NC(=O)N2C[C@@](C)(C(F)(F)F)c3c2cnc2cc(Cl)nn32)cnc1-n1nccn1 [compound 132, (R)-2-chloro-8-methyl-N-(5-(methylamino)-6-(2H-1,2,3-triazol-2-yl)pyridin-3-yl)-8-(trifluoromethyl)-7,8-dihydro-6H-pyrazolo[1,5-a]pyrrolo[2,3-e]pyrimidine-6-carboxamide] |  |  | 100 to 1000 nM |
| COc1cnn(-c2ncc(NC(=O)N3C[C@@](C)(C(F)(F)F)c4c3cnc3cc(Cl)nn43)cc2Cl)n1 [compound 92, (R)-2-chloro-N-(5-chloro-6(4-methoxy-2H-1,2,3-triazol-2-yl)pyridin-3-yl)-8-methyl-8-(trifluoromethyl)-7,8-dihydro-6H-pyrazolo[1,5-a]pyrrolo[2,3-e]pyrimidine-6-carboxamide] | 10 to 100 nM |  |  |

Continued, values first:

| IC50 [1] | IC50 [2] | IC50 [3] | SMILES |
| --- | --- | --- | --- |
| 10 to 100 nM | 10 to 100 nM |  | C[C@@]1(C(F)(F)F)CN(C(=O)Nc2cnc(-n3nccn3)c(C(F)(F)F)c2)c2cnc3cc(Cl)nn3c21 [compound 40, (R)-N-(6-(2H-1,2,3-triazol-2-yl)-5-(trifluoromethyl)pyridin-3-yl)-2-chloro-8-methyl-8-(trifluoromethyl)-7,8-dihydro-6H-pyrazolo[1,5-a]pyrrolo[2,3-e]pyrimidine-6-carboxamide] |
| 10 to 100 nM | 10 to 100 nM |  | CCN(C)C(=O)c1ncc(NC(=O)N2C[C@@](C)(C(F)(F)F)c3c2cnc2cc(Cl)nn32)cc1C(F)F [compound 149, (R)-2-chloro-N-(5-(difluoromethyl)-6-(ethyl(methyl)carbamoyl)pyridin-3-yl)-8-methyl-8-(trifluoromethyl)-7,8-dihydro-6H-pyrazolo[1,5-a]pyrrolo[2,3-e]pyrimidine-6-carboxamide] |
|  | 10 to 100 nM | 10 to 100 nM | C[C@@]1(C(F)(F)F)CN(C(=O)Nc2cnn(C(F)F)c2)c2cnc3cc(Cl)nn3c21 [compound 64, (R)-2-chloro-N-(1-(difluoromethyl)-1H-pyrazol-4-yl)-8-methyl-8-(trifluoromethyl)-7,8-dihydro-6H-pyrazolo[1,5-a]pyrrolo[2,3-e]pyrimidine-6-carboxamide] |
|  | 10 to 100 nM | 10 to 100 nM | C[C@@]1(C(F)(F)F)CN(C(=O)Nc2cnnc(C(F)(F)F)c2)c2cnc3cc(Cl)nn3c21 [compound 59, (R)-11-chloro-3-methyl-3-(trifluoromethyl)-N-[6-(trifluoromethyl)pyridazin-4-yl]-1,5,8,12-tetrazatricyclo[7.3.0.02,6]dodeca-2(6),7,9,11-tetraene-5-carboxamide] |
|  | 100 to 1000 nM | 10 to 100 nM | C[C@@]1(C(F)(F)F)CN(C(=O)Nc2cnc(C(O)C3CC3)c(Cl)c2)c2cnc3cc(Cl)nn3c21 (stereo partly drawn) [compound 72, (8R)-2-chloro-N-(5-chloro-6-(cyclopropyl(hydroxy)methyl)pyridin-3-yl)-8-methyl-8-(trifluoromethyl)-7,8-dihydro-6H-pyrazolo[1,5-a]pyrrolo[2,3-e]pyrimidine-6-carboxamide] |
|  |  | 100 to 1000 nM | C[C@@]1(C(F)(F)F)CN(C(=O)Nc2cnc(C(=O)N3CCC3)c(C(F)F)c2)c2cnc3cc(Cl)nn3c21 [compound 203, (R)-N-(6-(azetidine-1-carbonyl)-5-(difluoromethyl)pyridin-3-yl)-2-chloro-8-methyl-8-(trifluoromethyl)-7,8-dihydro-6H-pyrazolo[1,5-a]pyrrolo[2,3-e]pyrimidine-6-carboxamide] |
|  | 10 to 100 nM | 10 to 100 nM | C[C@H](O)COc1ncc(NC(=O)N2C[C@@](C)(C(F)(F)F)c3c2cnc2cc(Cl)nn32)cc1Cl [compound 73, (R)-2-chloro-N-(5-chloro-6-((S)-2-hydroxypropoxy)pyridin-3-yl)-8-methyl-8-(trifluoromethyl)-7,8-dihydro-6H-pyrazolo[1,5-a]pyrrolo[2,3-e]pyrimidine-6-carboxamide] |
|  |  | 100 to 1000 nM | CN1CC(Oc2cc(NC(=O)N3C[C@@](C)(C(F)(F)F)c4c3cnc3cc(Cl)nn43)cn(C(F)F)c2=O)C1 [compound 110, (R)-2-chloro-N-(1-(difluoromethyl)-5-((1-methylazetidin-3-yl)oxy)-6-oxo-1,6-dihydropyridin-3-yl)-8-methyl-8-(trifluoromethyl)-7,8-dihydro-6H-pyrazolo[1,5-a]pyrrolo[2,3-e]pyrimidine-6-carboxamide] |
|  | 100 to 1000 nM | 10 to 100 nM | C[C@@]1(C(F)(F)F)CN(C(=O)Nc2cc(C#N)nc(C(F)(F)F)c2)c2cnc3cc(Cl)nn3c21 [compound 61, (R)-2-chloro-N-(2-cyano-6-(trifluoromethyl)pyridin-4-yl)-8-methyl-8-(trifluoromethyl)-7,8-dihydro-6H-pyrazolo[1,5-a]pyrrolo[2,3-e]pyrimidine-6-carboxamide] |
|  | 10 to 100 nM | 10 to 100 nM | CC1(C(F)(F)F)CN(C(=O)Nc2cnc(-n3nccn3)c(Cl)c2)c2cnc3cc(C(F)F)nn3c21 (stereo not shown) [Compound 62] |
